The values below come from patent US20180214400A1, “THE USE OF KAURANES COMPOUNDS IN THE MANUFACTURE OF MEDICAMENT FOR TREATMENT OF CADIAC HYPERTROPY AND PULMONARY HYPERTENSION” (KEY-PHARMA BIOMEDICAL INC., priority 2015, published 2018).

Series [1] concerns acute ischemia-reperfusion heart injuries. As to conditions: cited from earlier work.
The conditions of series [2]: large amount, certain condition in vitro; cited from earlier work.
Series [3] relates to cGMP. Briefly: cGMP ELISA in neonatal rat fibroblasts. It counts as cell-based. Particulars: 3 h. The procedure: Neonatal rat cardiac fibroblasts were isolated from 1-2-day-old Sprague-Dawley rats as described previously. Briefly, hearts from newborn 1-2-day-old Sprague-Dawley rats were minced on ice, and cells were isolated by trypsin incubation at 37° C. Non-cardiomyocytes were separated from the cardiomyocytes by differential pre-plating, and then cardiomyocytes were removed with fibroblasts seeded in culture dishes. The cells were passaged after 3 days, using a 0.05% trypsin solution. Cells were cultured in DEME/F12 medium with 5% fetal calf serum, and maintained at 37° C., 5% CO2 condition. cGMP levels in the neonatal rat fibroblasts after treated with vehicle or compound A or sildenafil were measured with an ELISA kit following the manufacture's instruction. Quiescent cells were cultured with different doses of compound A ([…]) or sildenafil ([…]) for 3 h. After treatment, the cells were lysed with 0.1N HCl, and performed cGMP ELISA assay.

Series [4] concerns Diabetic cardiomyopathy (DCM) rats. Nature of the series: Streptozotocin-induced diabetic cardiomyopathy. It counts as in vivo, Wistar rats. Particulars: STZ diabetes, 12-16 weeks; for cardiac function comparing to group B: pressure-volume system. The procedure:
Diabetic cardiomyopathy (DCM) Diabetic induced injury to the myocardium. DCM, induced by streptozotocin (STZ), along with the associated changes occurring in inflammation, oxidative stress and fibrosis markers. Wistar rats were randomly divided into four groups: group A (Normal control), group B (Diabetes), group […] group D (DM/TMZ, trimetazidine treatment). After 12-16 weeks, left ventricular function was measured by the pressure-volume system. Cardiac tissues were prepared for histological study by hematoxlyin and eosin, Sirius red staining as well as for assays of oxidative stress. Oxidative stress, inflammation, and fibrosis markers were evaluated by molecular biological techniques. All data were measured morphometrically and statistically analyzed.

Series [5] is described as follows: Solubility of compound A sodium. Type of series: physicochemical.
Description: Only organic solvent which are already approved by FDA for i.v. administration were used for increasing solubility of compound A. After extensive screening of several solvents, the invention disclosed an optimized solvent system for compound A, which composed of saline at pH 10.0, 25% of ethanol and 20% of propylene glycol (2%, w/w) (compound A sodium).

For `C=C1C[C@@]23CC[C@H]4[C@@](C)(CCC[C@@]4(C)C(=O)O)[C@@H]2CC[C@]1(O)C3` (single isomer, unassigned; ent-13) [Compound B, ent-13-hydroxykaur-16-en-18-oic acid], the “cardioprotective effect and arrhythmia” value in series [1] is given as “cardioprotective effect”. In addition, the mutagenicity entry in series [2] is recorded as “may be mutagenic”.
Consider `CC12CCC3C(CCC4C(C)(C(=O)[O-])CCCC34C)(CC1=O)C2.[Na+]` (stereo not shown) [Compound A-1Na], for which the Stimulated production of cGMP in series [3] (1 um) came to 157 ± 43%. Also, the Stimulated production of cGMP in series [3] (10 um) came to 207 ± 54%. In series [4], the “blood glucose level and insulin levels comparing to Diabetes group” value is given as “no significant changes”; the “cardiac function comparing to group B” value is on record as “significantly improved”. In series [5], the “solubility of sodium salt relative to compound A” value is recorded as “better solubility”.
With `COc1ccc(CN2CCNCC2)c(OC)c1OC` [TMZ, trimetazidine, reference compound], in series [4], the “blood glucose level and insulin levels comparing to Diabetes group” value is reported as “no significant changes”; the cardiac hypertrophy entry is recorded as “significant inhibited”; the “cardiac function comparing to group B” value is “significantly improved”.
